The values below come from PMC4774972, “Activity and Predicted Nephrotoxicity of Synthetic Antibiotics Based on Polymyxin B” (Journal of Medicinal Chemistry, 2016).

Data set [1] deals with A. baumannii CI Ptyela 100734512:2, PmxR. Conditions: MIC A. baumannii CI Ptyela 100734512:2, PmxR (µg/mL).
The test system of data set [2] is K. pneumoniae CI 138-16357-20362, PmxR. The following applies: MIC K. pneumoniae CI 138-16357-20362, PmxR (µg/mL).
Data set [3] relates to K. pneumoniae CI Koprana 100650661:1, PmxR. Conditions: MIC K. pneumoniae CI Koprana 100650661:1, PmxR (µg/mL).
The subject of data set [4] is P. aeruginosa FADDI-PA070, PmxR. The following applies: MIC P. aeruginosa FADDI-PA070, PmxR (µg/mL).
The test system of data set [5] is P. aeruginosa PA9704, PmxR. The following applies: MIC P. aeruginosa PA9704, PmxR (µg/mL).
The test system of data set [6] is S. aureus ATCC 25923, MSSA. Conditions: MIC S. aureus ATCC 25923, MSSA (µg/mL).
The test system of data set [7] is HepG2. Conditions: CC50 HepG2 (µM).
Data set [8] deals with K. pneumoniae CI 138-16357-20362, PmxR. In words: microbe, parasite or virus in culture. The data set is classed as cell-based, Klebsiella pneumoniae. Conditions: carbapenem & polymyxin resistant clinical isolate; MHB, 5 × 10^5 CFU/mL, 18 h at 37 °C. The protocol:
(§1) Bacteria were either obtained from American Type Culture Collection (ATCC; Manassas, VA, USA) or independent academic clinical isolate collections, as listed in Table S2. Bacteria were cultured in nutrient broth (NB; Bacto Laboratories, catalog no. 234000) or Muller Hinton broth (MHB; Bacto Laboratories, catalog no. 211443) at 37 °C overnight with shaking (∼180 rpm). A sample of each culture was then diluted 50-fold in fresh MHB and incubated at 37 °C for 1.5–3 h with shaking (∼180 rpm). Compound stock solutions were prepared as 0.64 or 2.56 mg/mL in water. The compounds, at twice the final desired concentration, were serially diluted 2-fold across the wells of 96-well plates (Polystyrene, Corning, catalogue No. 3370). Mid log phase bacterial cultures (after 1.5–3 h incubation) were diluted to a final concentration of 5 × 10^5 colony forming units (CFU)/mL, and 50 μL was added to each well giving a final compound concentration range of 32 μg/mL to 0.015 μg/mL (128–0.06 μg/mL for colistin and polymyxin B against the polymyxin resistant clinical isolates). MICs were determined visually after 18 h of incubation at 37 °C, with the MIC defined as the lowest compound concentration at which no bacterial growth was visible.
(§2) Table S2. Bacterial strains used for Minimum Inhibitory Concentration (MIC) […]
(§3) Organism Strain Strain description Strain Source
(§4) Escherichia coli ATCC 25922 FDA strain Seattle 1946 ATCC
(§5) Klebsiella pneumoniae ATCC 13883 Control strain ATCC
(§6) Klebsiella pneumoniae ATCC 700603 Multi-drug resistant ATCC
(§7) Klebsiella pneumoniae BAA-2146 Metallo-beta-lactamase- ATCC
(§8) Acinetobacter baumannii ATCC 19606 Type strain ATCC
(§9) Pseudomonas aeruginosa ATCC 27853 Type strain ATCC
(§10) Pseudomonas aeruginosa FADDI-PA070 Clinical isolate, Nation and Li labs, polymyxin resistant Monash University
(§11) Clinical isolate, Wang Hengzhuang, Pseudomonas aeruginosa PA9704 polymyxin resistant University Hospital of […]
(§12) Ptyela Clinical isolate, Ilias Karaiskos and Acinetobacter baumannii Carbapenem & Helen Giamarellou
(§13) Clinical isolate, Medicine, Hygeia
(§14) Klebsiella pneumoniae Koprana Carbapenem, & General Hospital, […]
(§15) Clinical isolate, (Instituto Dante […]
(§16) polymyxin resistant Cardiologia, São […]

Data set [9] relates to K. pneumoniae CI Koprana 100650661:1, PmxR. Kind of data set: microbe, parasite or virus in culture. The data set is classed as cell-based, Klebsiella pneumoniae. The following applies: carbapenem & polymyxin resistant clinical isolate; MHB, 5 × 10^5 CFU/mL, 18 h at 37 °C. The protocol:
as §1, §2, §3, §4, §5, §6, §7, §8, §9, §10, §11, §12, §13, §14, §15, §16

In brackets after ≈: the same amount, converted by molar mass. Bridge positions count the residues as written; N and C are the ends. Square brackets hold non-standard residues; d marks the D form. Peptide text beside a SMILES is read from it. * marks the point of attachment. Bip = N[C@@H](Cc1ccc(-c2ccccc2)cc1)C(=O)O; dBip = N[C@H](Cc1ccc(-c2ccccc2)cc1)C(=O)O; Gly(octyl) = CCCCCCCC[C@H](N)C(=O)O; Octanoyl = CCCCCCCC(=O)*; Dab = NCC[C@H](N)C(=O)O

In the case of `CCCCCCCC(=O)N[C@@H](CCN)C(=O)N[C@H](C(=O)N[C@@H](CCN)C(=O)N[C@H]1CCNC(=O)[C@H]([C@@H](C)O)NC(=O)[C@H](CCNC(=O)[C@@H](N)CCCNC(=N)N)NC(=O)[C@H](CCN)NC(=O)[C@H](CC(C)C)NC(=O)[C@@H](Cc2ccccc2)NC(=O)[C@H](CCN)NC1=O)[C@@H](C)O` [Compound 18] (Octanoyl-[Dab]T[Dab][Dab][Dab][dF]L[Dab][Dab](Arg)T; lactam 4-C), the minimum inhibitory concentration (MIC) in data set [1], in [2], in data set [3], in data set [4], in [5] and in data set [6] was greater than 32 µg/mL throughout. In data set [7], this compound displayed a CC50 greater than 300 µM. Moreover, in [8], the “MIC K. pneumoniae CI 138-16357-20362, PmxR” value is greater than 32 µg/mL. Besides, the “MIC K. pneumoniae CI Koprana 100650661:1, PmxR” value in [9] is greater than 32 µg/mL.
Take `CCCCCCCC(=O)N[C@@H](CCN)C(=O)N[C@H](C(=O)N[C@@H](CCN)C(=O)N[C@H]1CCNC(=O)[C@H]([C@@H](C)O)NC(=O)[C@H](CCN)NC(=O)[C@H](Cc2ccc(N)cc2)NC(=O)[C@H](CC(C)C)NC(=O)[C@@H](Cc2ccccc2)NC(=O)[C@H](CCN)NC1=O)[C@@H](C)O` [Compound 25]: the MIC in [1], in data set [2], in data set [3], in data set [5] and in data set [6] was greater than 32 µg/mL in each case. In data set [8], the “MIC K. pneumoniae CI 138-16357-20362, PmxR” value was greater than 32 µg/mL. Moreover, the “MIC K. pneumoniae CI Koprana 100650661:1, PmxR” value in data set [9] was greater than 32 µg/mL.
For `CCCCCCCC(=O)N[C@H](C(=O)N[C@@H](CCN)C(=O)N[C@H]1CCNC(=O)[C@H]([C@@H](C)O)NC(=O)[C@H](CCN)NC(=O)[C@H](CCN)NC(=O)[C@H](CC(C)C)NC(=O)[C@@H](Cc2ccccc2)NC(=O)[C@H](CCN)NC1=O)[C@@H](C)O` [Compound 12] (Octanoyl-T[Dab][Dab][Dab][dF]L[Dab][Dab]T; lactam 3-C), the MIC in data set [1], in [2], in [3], in [4], in [5] and in data set [6] was greater than 32 µg/mL each time. Besides, in data set [7], the CC50 is greater than 300 µM. Also, the “MIC K. pneumoniae CI 138-16357-20362, PmxR” value in data set [8] was greater than 32 µg/mL. Besides, the “MIC K. pneumoniae CI Koprana 100650661:1, PmxR” value in data set [9] was greater than 32 µg/mL.
Turning to `CCCCCCCC[C@@H]1NC(=O)[C@@H](Cc2ccccc2)NC(=O)[C@H](CCN)NC(=O)[C@@H](NC(=O)[C@H](CCN)NC(=O)[C@@H](NC(=O)[C@H](CCN)NC(=O)CCCCCCC)[C@@H](C)O)CCNC(=O)[C@H]([C@@H](C)O)NC(=O)[C@H](CCN)NC(=O)[C@H](CCN)NC1=O` (Octanoyl-[Dab]T[Dab][Dab][Dab][dF][Gly(octyl)][Dab][Dab]T; lactam 4-C), the MIC – broadly, the least concentration at which growth counts as inhibited – in data set [1] was found to be 8 µg/mL (≈ 6.42 µM); in [2], 32 µg/mL (≈ 25.7 µM); in data set [3], 32 µg/mL (≈ 25.7 µM); in data set [4], 16 µg/mL (≈ 12.8 µM); in [5] it was 8 µg/mL (≈ 6.42 µM); in data set [6] it was 8 µg/mL (≈ 6.42 µM). Also, in data set [7], the CC50 is 116 µM.
In the case of `CCCCCCCC(=O)N[C@@H](CCN)C(=O)N[C@H](C(=O)N[C@@H](CCN)C(=O)N[C@H]1CCNC(=O)[C@H]([C@@H](C)O)NC(=O)[C@H](CCN)NC(=O)[C@H](CCN)NC(=O)[C@H](CC(C)C)NC(=O)[C@@H](Cc2ccc(-c3ccccc3)cc2)NC(=O)[C@H](CCN)NC1=O)[C@@H](C)O` (Octanoyl-[Dab]T[Dab][Dab][Dab][dBip]L[Dab][Dab]T; lactam 4-C), the CC50 in data set [7] was 119 µM.
In the case of `CCCCCCCC(=O)N[C@@H](CCN)C(=O)N[C@H](C(=O)N[C@H](CO)C(=O)N[C@H]1CCNC(=O)[C@H]([C@@H](C)O)NC(=O)[C@H](CCN)NC(=O)[C@H](CCN)NC(=O)[C@H](CC(C)C)NC(=O)[C@@H](Cc2ccccc2)NC(=O)[C@H](CCN)NC1=O)[C@@H](C)O` [Compound 37] (Octanoyl-[Dab]T[dS][Dab][Dab][dF]L[Dab][Dab]T; lactam 4-C), the MIC in data set [1], in [2], in [3], in [4], in [5] and in [6] was greater than 32 µg/mL each time. The CC50 in data set [7] was greater than 300 µM. Moreover, in data set [8], the “MIC K. pneumoniae CI 138-16357-20362, PmxR” value was greater than 32 µg/mL. Also, in data set [9], the “MIC K. pneumoniae CI Koprana 100650661:1, PmxR” value is greater than 32 µg/mL.
As for `CCCCCCCC(=O)N[C@@H](CCN)C(=O)N[C@H](C(=O)N[C@@H](CCN)C(=O)N[C@H]1CCNC(=O)[C@H]([C@@H](C)O)NC(=O)[C@H](CCN)NC(=O)[C@H](CCNC(=O)[C@@H](N)CCCNC(=N)N)NC(=O)[C@H](CC(C)C)NC(=O)[C@@H](Cc2ccccc2)NC(=O)[C@H](CCN)NC1=O)[C@@H](C)O` [Compound 22], the MIC in data set [1], in data set [2], in [3], in data set [4], in data set [5] and in [6] was greater than 32 µg/mL each time. Besides, the “MIC K. pneumoniae CI 138-16357-20362, PmxR” value in [8] was greater than 32 µg/mL. In addition, the “MIC K. pneumoniae CI Koprana 100650661:1, PmxR” value in [9] is greater than 32 µg/mL.
As for `CCCCCCCC(=O)N[C@@H](CCN)C(=O)N[C@H](C(=O)N[C@@H](CCN)C(=O)N[C@H]1CCNC(=O)[C@H]([C@@H](C)O)NC(=O)[C@H](CCN)NC(=O)[C@H](CCN)NC(=O)[C@H](CC(C)C)NC(=O)[C@@H](Cc2ccccc2)NC(=O)[C@H](CCNC(=O)[C@@H](N)CCCNC(=N)N)NC1=O)[C@@H](C)O` [Compound 31] (Octanoyl-[Dab]T[Dab][Dab][Dab](Arg)[dF]L[Dab][Dab]T; lactam 4-C), the MIC in data set [1], in data set [2], in data set [3], in data set [4], in data set [5] and in [6] was greater than 32 µg/mL throughout. The compound further registered a CC50 in [7] greater than 300 µM. In addition, in data set [8], the “MIC K. pneumoniae CI 138-16357-20362, PmxR” value was greater than 32 µg/mL. Moreover, in data set [9], the “MIC K. pneumoniae CI Koprana 100650661:1, PmxR” value was greater than 32 µg/mL.
`CCCCCCCC(=O)N[C@@H](CCN)C(=O)N[C@H](C(=O)N[C@@H](CCN)C(=O)N[C@H]1CCNC(=O)[C@H]([C@@H](C)O)NC(=O)[C@H](CCN)NC(=O)[C@H](CCCNC(=N)N)NC(=O)[C@H](CC(C)C)NC(=O)[C@@H](Cc2ccccc2)NC(=O)[C@H](CCN)NC1=O)[C@@H](C)O` [Compound 26]: the MIC in data set [2], in [3], in [5] and in [6] was greater than 32 µg/mL each time. Moreover, the “MIC K. pneumoniae CI 138-16357-20362, PmxR” value in data set [8] was greater than 32 µg/mL. Also, the “MIC K. pneumoniae CI Koprana 100650661:1, PmxR” value in data set [9] is greater than 32 µg/mL.
The compound `CCCCCCCC(=O)N[C@@H](CCN)C(=O)N[C@H](C(=O)N[C@@H](CCN)C(=O)N[C@H]1CCNC(=O)[C@H]([C@@H](C)O)NC(=O)[C@H](CCN)NC(=O)[C@H](CCN)NC(=O)[C@H](Cc2ccc(-c3ccccc3)cc2)NC(=O)[C@@H](Cc2ccccc2)NC(=O)[C@H](CCN)NC1=O)[C@@H](C)O` (Octanoyl-[Dab]T[Dab][Dab][Dab][dF][Bip][Dab][Dab]T; lactam 4-C) came in with an MIC in data set [2] greater than 32 µg/mL. In addition, in data set [7], the CC50 was determined as 117 µM.
